Measurements published in PubChem BioAssay (NCI).
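All cell lines were grown in 96-well plates and treated with compound for 48 hours. The concentration for 50% growth inhibition is given as GI50. TGI denotes the concentration required for complete inhibition of growth.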

How the values were obtained:
Assay in all cases: NCI tumour cell line growth inhibition, 48 h
HCC-2998 colon = system: HCC-2998 colon
UACC-62 melanoma = system: UACC-62 melanoma
MOLT-4 leukemia = system: MOLT-4 leukemia
ACHN renal = system: ACHN renal
NCI-H23 lung = system: NCI-H23 lung
CCRF-CEM leukemia = system: CCRF-CEM leukemia
EKVX NSCLC = system: EKVX NSCLC
SR leukemia = system: SR leukemia
KM12 colon = system: KM12 colon
NCI-H522 lung = system: NCI-H522 lung

Row | SMILES | GI50 (HCC-2998 colon) [µM] | TGI (HCC-2998 colon) [µM] | GI50 (UACC-62 melanoma) [µM] | TGI (UACC-62 melanoma) [µM] | GI50 (MOLT-4 leukemia) [µM] | TGI (MOLT-4 leukemia) [µM] | GI50 (ACHN renal) [µM] | TGI (ACHN renal) [µM] | GI50 (NCI-H23 lung) [µM] | TGI (NCI-H23 lung) [µM] | GI50 (CCRF-CEM leukemia) [µM] | TGI (CCRF-CEM leukemia) [µM] | GI50 (EKVX NSCLC) [µM] | TGI (EKVX NSCLC) [µM] | GI50 (SR leukemia) [µM] | TGI (SR leukemia) [µM] | GI50 (KM12 colon) [µM] | TGI (KM12 colon) [µM] | GI50 (NCI-H522 lung) [µM] | TGI (NCI-H522 lung) [µM]
1 | CCC[CH2][Sn]([CH2]CCC)([O]c1cccc2cccnc12)[O]c1cccc2cccnc12 | 0.36 | 0.842 | 0.193 | 0.421 | 0.159 | 0.377 | 0.458 | 0.853 | 0.169 | 0.52 | 0.0317 | 0.313 | 0.34 | 1.22 |  |  |  |  |  | 
2 | O=C(Nc1ccc(Cc2ccccc2)cc1)Nc1nn(C(=O)Nc2ccc(Cc3ccccc3)cc2)c2ccccc12 | > 100 | > 100 | 41.6 | > 100 | 63.2 | > 100 | > 100 | > 100 | > 100 | > 100 |  |  | > 100 | > 100 | 16.3 | 35.8 | > 100 | > 100 | > 100 | > 100
3 | O=S(=O)([O-])c1ccc(N=Cc2ccccc2[O-])cc1.O=S(=O)([O-])c1ccc(N=Cc2ccccc2[O-])cc1.[Co+2] | 79.1 | > 100 | 76.8 | > 100 | 21.7 | > 100 | > 100 | > 100 | > 100 | > 100 | 15.5 | > 100 | 69.2 | > 100 | 30.3 | > 100 | > 100 | > 100 |  | 
4 | CCN1CCC(Nc2ccnc3cc(Cl)ccc23)CC1 | 33.3 | > 100 | 19.2 | 39.2 | 18.5 | > 100 | 33.9 | > 100 | 74.1 | > 100 | 36.9 | > 100 | 35.2 | > 100 | 3.44 | 28.2 | 25.2 | > 100 |  | 
5 | CN1CN(C2OC(CO)C(O)C2O)c2nc(N)[nH]c(=O)c21 (configuration not stated) |  | > 100 |  | > 100 |  | > 100 |  | > 100 |  | > 100 |  |  |  | > 100 |  | > 100 |  | > 100 |  | 38.5
6 | CCCCOC(=O)c1ccc(N)cc1 | 22.7 | 66.2 | 17.9 | > 100 | > 100 | > 100 | 8.46 | > 100 | > 100 | > 100 | 48.2 | > 100 | 39.7 | > 100 |  |  | 29.8 | > 100 | 54.1 | > 100
7 | O=c1[nH]c2ccccc2c2nc3ccccc3n12 |  | > 100 |  | > 100 |  | > 100 |  | > 100 |  | > 100 |  | > 100 |  | > 100 |  |  |  | > 100 |  | 28.2
8 | C=C(CO)CC(O)c1cc(OC)ccc1OC (configuration not stated) |  | > 100 |  | > 100 |  | > 100 |  | > 100 |  |  |  | > 100 |  | > 100 |  |  |  | > 100 |  | > 100
